Patent US20030194750A1, “Methods for treatment of diseases where GSK 3-beta is desired, and methods to identify compounds usefule for that” (priority 2002, published 2003)

What was measured:
[1] = molecular target: T1, GST-cGB-PDE5 fusion protein (Homo sapiens, UniProt O76074); assay: cGMP binding assay with GST-cGB-PDE5 fusion protein; settings: 3H-cGMP 2 μM, 22° C., 1 hour
T1 construct: made in house; host or cells: E. coli BL21 (DE3)
Procedure: 5′-3′, Inc. kits for total RNA followed by oligo (dT) column purification of mRNA are used with HT-29 cells. […] It is then cloned into pGEX-5X-3 glutathione-S-transferase (GST) fusion vector (Pharmacia Biotech) with tac promoter, and EcoRI and XhoI cut sites. The fusion vector is then transfected into E. Coli BL21 (DE3) bacteria (Invitrogen). The transfected BL21 bacteria is grown to log phase, and then IPTG is added as an inducer. The induction is carried at 20° C. for 24 hrs. The bacteria are harvested and lysed. The soluble cell lysate is incubated with GSH conjugated Sepharose 4B (GSH-Sepharose 4B). The GST-cGB-PDE5 fusion protein can bind to the GSH-Sepharose beads, and the other proteins are washed off from beads with excessive cold PBS.
Then, the mixture is transferred to Brandel MB-24 cell harvester with GF/B as the filter membrane followed by 2 washes with 10 mL of cold 5 mM potassium buffer( pH 6.8). The membranes are then cut out and transferred to scintillation vials followed by the addition of 1 mL of H2O and 6 mL of Ready Safe™ liquid scintillation cocktail to each vial. The vials are counted on a Beckman LS 6500 scintillation counter.
The quenching by filter membrane or other debris are also calibrated.

[2] = tested on: PKG1β; assay: Western blot of PKG1β in SW480 cells; type: cell-based, human; settings: various concentrations, 48 hours
Procedure: (§1) 50 μg protein/lane were analyzed by Western blot analysis using specific anti-PKG1β and anti-GSK3β-phospho-ser9 antibodies.

[3] = tested on: PKG; assay: PKG activity assay on lysates of drug-treated HCT116 colon cancer cells; type: cell-based, human; settings: HCT116 cells (β-catenin mutation, no APC mutation), same procedure as SW480
Source text: HCT116 is known to contain the β-catenin mutation, but is known not to contain the APC mutation.
The same procedure is used to grow the HCT116 cells as is used in the SW480 procedure described above. In this experiment, only exisulind and controls were used.

[4] = tested on: β-catenin; assay: Western blot of β-catenin in SW480 cells; type: cell-based, human
Procedure: (§2) SW480 cells treated with exisulind as described previously are harvested from the microfuge tubes by rinsing once with ice-cold PBS. The cells are lysed by modified RIPA buffer for 15 minutes with agitation. The cell lysate is spun down in a cold room. The supernatants are transferred to fresh microcentrifuge tubes immediately after spinning. BioRad DC Protein Assay (Temecula, Calif.) is performed to determine the protein concentrations in samples. The samples are normalized for protein concentration, as described above.
(§3) 50 μg of each sample is loaded to 10% SDS gel. SDS-PAGE is performed, and the proteins then are transferred to a nitrocellulose membrane. The blotted nitrocellulose membrane are blocked in freshly prepared TBST containing 5% nonfat dry milk for one hour at room temperature with constant agitation.
SW480 cells were treated with exisulind or vehicle (0.1% DMSO) for 48 hours. 50 μg supernatant of each cell lysates were loaded to 10% SDS-gel and blotted to nitrocellulose membrane, and the membrane was probed with rabbit-anti-β-catenin and rabbit anti-PKG antibodies.
This observation was made by culturing SW480 cells with either 200, 400 or600 μM exisulind or vehicle (0.1% DMSO). The cells are harvested 48 hours post treatment and processed for immunoblotting. Immuno-reactive protein can be detected by Western blot. […]

[5] = tested on: GSK3β; assay: Western blot of GSK3β-phospho-ser9 in SW480 cells; type: cell-based, human; settings: various concentrations, 48 hours, vs 0 concentration
Procedure: as §1

[6] = tested on: PKG; assay: Western blot of PKG protein in SW480 cells; type: cell-based, human; settings: 48 hours, vs vehicle 0.1% DMSO
Procedure: as §2, §3
A goat-anti-PKG primary antibody is diluted to the recommended concentration/dilution in fresh TBST/5% nonfat dry milk. The nitrocellulose membrane is placed in the primary antibody solution and incubated one hour at room temperature with agitation. The nitrocellulose membrane is washed three times for ten minutes each with TBST. The nitrocellulose membrane is incubated in a solution containing a secondary POD conjugated rabbit anti-goat antibody for 1 hour at room temperature with agitation. The nitrocellulose membrane is washed three times for ten minutes each time with TBST. […]

[7] = tested on: PKG; assay: PKG activity assay on lysates of drug-treated SW480 colon cancer cells (32P phosphorylation of PDE5/GST substrate); type: cell-based, human; settings: SW480 cells treated 48 hrs; exisulind 200, 400, 600 μM, E4021 0.1, 1, 10 μM; assay with and without added cGMP
Procedure: A compound that inhibits all these types of PDE is desirable, accordingly. Below, we provide examples of such PDE-inhibiting compounds.
SW 480 is known to contain the APC mutation. About 5 million SW480 cells in RPMI 5% serum are added to each of 8 dishes:
2-10 cm dishes - - - 30 μL DMSO vehicle control (without drug),
3-10 cm dishes - - - 200 μM, 400 μM, 600 μM exisulind in DMSO, and
The dishes are incubated for 48 hrs at 37° C. in 5% CO2 incubator.
The liquid media are aspirated from the dishes (the cells will attach themselves to the dishes). The attached cells are washed in each dish with cold PBS, and 200 μL cell lysis buffer (i.e., 50 mM Tris-HCl, 1% NP-40, 150 mM NaCl, 1 mM EDTA, 1 mM Na3VO4, 1 mM NaF, 500 μM IBMX with proteinase inhibitors) is added to each dish. Immediately after the cell lysis buffer is added, the lysed cells are collected by scraping the cells off each dish. The cell lysate from each dish is transferred to a microfuge tube, and the microfuge tubes are incubated at 4° C. for 15 minutes while gently agitating the microfuge tubes to allow the cells to lyse completely. […]
For each control or drug cell lysate sample to be evaluated, the reaction is started by adding phosphorylation buffer containing 10 μCi ^32P-γ-ATP solution (200 μM ATP, 4.5 mM MgCl; 5 mM KH2PO4; 5 mM K2HPO4;) to each mixture. […]

[8] = molecular target: T2, COX I (Ovis aries, UniProt P05979); assay: Purified cyclooxygenase (COX) inhibition; type: biochemical, ram; settings: arachidonic acid 100 μM, 2.0 min, 37° C.
T2 construct: The COX was purified from ram seminal vesicles; from tissue; host or cells: ram seminal vesicles
T2 sequence (P05979 25-600): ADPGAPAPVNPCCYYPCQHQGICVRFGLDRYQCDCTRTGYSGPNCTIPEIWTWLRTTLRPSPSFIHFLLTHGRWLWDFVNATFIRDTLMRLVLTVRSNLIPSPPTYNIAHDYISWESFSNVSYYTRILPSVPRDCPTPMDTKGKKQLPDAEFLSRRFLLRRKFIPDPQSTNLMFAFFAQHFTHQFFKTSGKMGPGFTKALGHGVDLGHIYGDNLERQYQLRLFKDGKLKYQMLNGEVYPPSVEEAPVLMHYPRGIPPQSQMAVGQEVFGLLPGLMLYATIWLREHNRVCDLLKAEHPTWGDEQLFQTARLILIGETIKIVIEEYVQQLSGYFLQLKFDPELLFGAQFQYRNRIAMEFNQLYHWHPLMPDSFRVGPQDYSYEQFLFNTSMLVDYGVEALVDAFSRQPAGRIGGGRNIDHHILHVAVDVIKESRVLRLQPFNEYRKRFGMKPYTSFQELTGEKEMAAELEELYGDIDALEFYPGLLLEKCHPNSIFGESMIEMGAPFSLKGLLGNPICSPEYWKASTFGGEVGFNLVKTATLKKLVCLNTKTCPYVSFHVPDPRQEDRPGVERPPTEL
Procedure: COX catalyzes the formation of prostaglandins and thromboxane by the oxidative metabolism of arachidonic acid. The compound of Example 1 of this invention, as well as a positive control, (sulindac sulfide) were evaluated to determine whether they inhibited purified cyclooxygenase Type I (see Table 1 below).
The compounds useful in the practice of this invention were evaluated for inhibitory effects on purified COX. The COX was purified from ram seminal vesicles, as described by Boopathy, R. and Balasubramanian, J., 239:371-377, 1988. COX activity was assayed as described by Evans, A. T., et al., “Actions of Cannabis Constituents on Enzymes Of Arachidonate Metabolism Anti-Inflammatory Potential,” Biochem. Pharmacol., 36:2035-2037, 1987. Briefly, purified COX was incubated with arachidonic acid (100 μM) for 2.0 min at 37° C. in the presence or absence of test compounds. The assay was terminated by the addition of TCA, and COX activity was determined by absorbance at 530 nm.

T1 sequence (O76074 46-539 limits assumed): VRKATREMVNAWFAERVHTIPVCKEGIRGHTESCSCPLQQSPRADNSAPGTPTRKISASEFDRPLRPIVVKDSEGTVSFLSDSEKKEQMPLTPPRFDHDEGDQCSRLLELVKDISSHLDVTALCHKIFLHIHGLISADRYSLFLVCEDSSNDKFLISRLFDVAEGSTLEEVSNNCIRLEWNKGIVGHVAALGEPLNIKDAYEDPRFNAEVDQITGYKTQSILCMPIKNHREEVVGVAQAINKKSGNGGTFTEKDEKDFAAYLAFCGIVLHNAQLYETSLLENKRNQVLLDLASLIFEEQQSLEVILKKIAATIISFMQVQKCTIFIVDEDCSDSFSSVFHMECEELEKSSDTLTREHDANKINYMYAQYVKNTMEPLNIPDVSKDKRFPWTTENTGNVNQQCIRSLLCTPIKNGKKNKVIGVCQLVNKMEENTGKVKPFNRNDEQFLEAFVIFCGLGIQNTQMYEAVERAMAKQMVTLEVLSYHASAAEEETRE

Compound | competition with cGMP for the cGMP binding sites [1] | PKG1 induction [2] | PKG activation relative to controls [3] | reduction of β-catenin expression compared to control ([4]; SW480 cells, 200, 400 or 600 μM, harvested 48 hours post treatment) [%] | β-catenin level by Western blot ([4]; SW480 cells, 48 hours, vs vehicle 0.1% DMSO) | GSK3β inactivation by Ser9 phosphorylation [5] | PKG protein level by Western blot [6] | PKG activity relative to control [7] | inhibition at 100 µM [8] [%]
CC1=C(CC(=O)O)c2cc(F)ccc2/C1=C\c1ccc(S(C)(=O)=O)cc1 [exisulind] | None of the PDE5 inhibitors showed any competition with cGMP in binding | PKG1 induction in a dose-dependent manner | PKG activation occurred | 50 | drop of β-catenin | inactivated in vivo by phosphorylation of its Ser9 | increase of PKG | causes PKG activity to increase in a dose-dependent manner | 
CC1=C(CC(=O)NCc2ccccc2)c2cc(F)ccc2/C1=C\c1ccncc1 [Example 1, (Z)-5-Fluoro-2-Methyl-(4-Pyridinylidene)-3-(N-Benzyl)-Indenylacetamide] |  |  |  |  |  |  |  |  | < 25
